Data on 13 compounds can be found in patent US9539221B2, “Method of treating airway diseases with β-adrenergic inverse agonists” (EGB ADVISORS, LLC, priority 2003, dated 2017).

“Also recorded” adds a separate entry of the source.

The conditions of data set [1]: cited from earlier work.
Data set [2] concerns asthmatic mice. The data set is described as follows: Airway resistance (Raw) response to methacholine provocation in murine model of asthma (forced oscillation). Conditions: 7 days, metoprolol 20 mg/kg 3× daily subcutaneous, timolol 20 mg/kg in chow. The class given is in vivo, Balb/cJ mice.
The conditions of data set [3]: large trial; cited from earlier work.
Data set [4] has as its system asthmatic mice. The data set can be described thus: Airway resistance (Raw) response to methacholine provocation in murine model of asthma (forced oscillation). The class given is in vivo, Balb/cJ mice. As for the experimental part: Balb/cJ mice aged 6 weeks (Jackson Animal Laboratory, Bar Harbor, Me.) were housed under specific pathogen-free conditions and fed a chicken ovalbumin-free diet. The Animal Research Ethics Boards of both the University of Houston and the Baylor College of Medicine approved all experiments reported here. […] Mice were sensitized with subcutaneous injection of 25 μg of ovalbumin adsorbed to aluminum hydroxide on protocol days 2, 9, and 16. Subsequently, mice were given 50 μL of saline solution containing 25 μg of ovalbumin intranasally, on a daily basis, from protocol days 23 through 27. A group of ovalbumin-sensitized saline-challenged mice serves as controls for systemic sensitization and respiratory challenges with ovalbumin. Prior to intranasal administrations, mice were sedated with halothane vapor.
To examine the effects of duration of β-adrenergic ligand therapy on the phenotype of the murine model of asthma, the experimental drugs were administered either acutely or chronically to different groups of asthmatic mice.
Asthmatic mice on acute therapy were given a single intravenous bolus infusion of either β-adrenergic drug or normal saline on protocol day 28, 15 minutes before airway responsiveness to methacholine was determined. […] Asthmatic mice on chronic therapy were treated with the β-adrenergic drug during protocol days 1 to 28. […] These concentrations were chosen based on those producing therapeutic effects in mice in previously published studies. The non-asthmatic mice were fed normal chow.
On protocol day 28, mice were anesthetized, tracheotomized, and connected to a computer-controlled small animal ventilator (Flexivent, Scientific Respiratory Equipment, Inc., Montreal, Canada). Airway resistance (Raw) was measured using the forced oscillation technique. The cellular composition of bronchoalveolar lavage fluid (BALF) was also determined.
To induce airway constriction, a solution containing 150 μg/mL of acetyl-α-methylcholine chloride (methacholine) (Sigma Chemical, St. Louis, Mo.) was infused intravenously at constant rates using a syringe infusion pump (Raze Scientific Instruments, Stanford, Conn.). […] Each methacholine dose was administered for 3 to 5 minutes, during which data were sampled at 1-minute intervals and then averaged.
The complex input impedance of the respiratory system was computed and the value of the real part of respiratory system impedance at 19.75 Hz was taken to reflect the magnitude of airway resistance (Raw). To examine the degree of airway responsiveness of each animal, the values for Raw as a function of methacholine doses were plotted. The largest value for Raw achieved in response to methacholine stimulation was referred to as Rawpeak. For mice that achieved a plateau in the methacholine dose-Raw response curve, the ED50 was calculated by linear interpolation using the GraphPad Prism4 (GraphPad Software, Inc.). […] The Bonferroni test was used to examine the statistical differences between experimental groups. The effects of acute drug treatments on baseline respiratory system mechanics were assessed using a two-tailed paired t-test. A value of P<0.05 was considered significant.
For these experiments, salbutamol was used for chronic administration at 0.5 mg/kg/day with a minipump and for acute administration at 0.15 mg/kg by i.v. bolus 15 minutes prior to challenge. Alprenolol was used at a high dose of 7200 ppm in chow or at a low dose of 720 ppm in chow. Carvedilol was used at a high dose of 2400 ppm in chow or at a low dose of 720 ppm in chow.

Data set [5] relates to asthmatic mice. The data set can be described thus: Combination therapy carvedilol and salbutamol on airway hyperresponsiveness. The data set is classed as in vivo, Balb/cJ mice. The note with it: 28 days carvedilol 2400 ppm in chow, alone or with salbutamol chronic (0.5 mg/kg/day) or acute ([…]); highest dose of methacholine. As for the experimental part:
Mice (Balb/cJ) aged 6 weeks were housed under specific pathogen-free conditions and fed a chicken ovalbumin-free diet. Mice were systemically sensitized with ovalbumin adsorbed to aluminum hydroxide. Mice were treated as follows: CAR/SAL 28D=for 28 days mice (n=6-12) were administered carvedilol (2400 ppm in animal chow) and salbutamol (subcutaneous delivery of 0.5 mg/kg/day in an Alzet #2400 osmotic minipump); NTX S/C=mice (n=6-12) no drug treatment for 28 days; CTRL=mice (n=6-12) no drug treatment for 28 days, not subsequently challenged; CARHD 28D=for 28 days mice (n=6-12) were administered carvedilol only (2400 ppm in animal chow); CARHD 28D SAL AC=for 28 days mice (n=6-12) were administered carvedilol (2400 ppm in animal chow) and 15 minutes prior to measuring airway hyperresponsiveness, salbutamol was administered at a dose of […].
To measure airway hyperresponsiveness after 28 days, all mice except the CTRL (control) mice were challenged with ovalbumin and then all mice were anesthetized, tracheotomized, and connected to a Flexivent small animal ventilator to measure airway resistance (Raw) by the forced oscillation technique. To induce airway constriction, a solution containing 150 μg/mL of methacholine was infused using a syringe infusion pump. The methacholine infusion was started at 0.008 mL/min and its rate was doubled stepwise up to a maximum […]. […]

The target of data set [6] is β2-adrenergic receptor (Mus musculus, UniProt P18762). The data set is described as follows: β-adrenergic receptor density in lung membranes of treated asthmatic mice by ICYP radioligand binding. The data set is classed as in vivo. Conditions: for Bmax (β-adrenergic receptor density): 15 Minutes drug treatment. As for the experimental part: (§1) β2-adrenergic receptor numbers were measured in asthmatic mice as follows. […] Mice were sacrificed and lung membranes were isolated as follows. Frozen lung tissue was homogenized in an ice-cold buffer containing 0.32 M sucrose and 25 mM Tris (pH 7.4) using a polytron (Pro 200, Pro Scientific, Inc.). The homogenate was centrifuged at 1000×g for 10 min at 4° C. The resulting supernatant was centrifuged at 40,000×g for 20 min at 4° C. The pellet was suspended in an ice-cold 25 mM Tris-HCl buffer (pH 7.4) and centrifuged at 40,000×g for 20 min at 4° C. The final pellet was suspended in 200 μL of 25 mM Tris-HCl (pH 7.4); membrane protein concentration was determined by BCA protein assay kit. […] The incubation was done at 37° C. for 2 h and terminated by rapid vacuum filtration through glass fiber filters. The filters were washed three times with 250 μL of cold wash buffer (25 mM Tris-HCl, pH 7.4) and the radioactivity determined in a counter. […] Receptor densities are expressed as femtomoles of sites per milligram of protein. Bmax is determined by nonlinear regression of the saturation binding curves.
β2-adrenergic receptor (Mus musculus, UniProt P18762), sequence (P18762 whole entry): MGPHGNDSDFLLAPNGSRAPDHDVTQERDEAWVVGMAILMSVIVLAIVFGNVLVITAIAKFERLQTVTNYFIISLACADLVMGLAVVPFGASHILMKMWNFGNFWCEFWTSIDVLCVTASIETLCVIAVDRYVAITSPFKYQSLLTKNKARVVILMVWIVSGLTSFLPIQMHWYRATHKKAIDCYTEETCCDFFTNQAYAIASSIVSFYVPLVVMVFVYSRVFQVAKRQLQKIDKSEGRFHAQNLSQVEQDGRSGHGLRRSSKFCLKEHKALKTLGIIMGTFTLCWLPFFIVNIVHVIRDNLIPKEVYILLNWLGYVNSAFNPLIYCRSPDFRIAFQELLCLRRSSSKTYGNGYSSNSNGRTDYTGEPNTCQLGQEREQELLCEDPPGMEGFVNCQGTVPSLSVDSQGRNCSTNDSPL

Data set [7] relates to β2-adrenergic receptor. The description is as above. The data set is classed as in vivo. The note with it: 2 days of administration. Here is the method: as §1
The subject of another data set is patients with CHF. The note with it: cited from earlier work.
The next data set concerns tracheas from the mice. The note with it: asthmatic mice chronically treated; WO 02/29534; cited from earlier work.
The conditions of data set [8]: acute administration; cited from earlier work.
The next data set relates to β-adrenergic receptor. The note with it: U.S. Pat. No. 5,116,867; cited from earlier work.
Data set [9] relates to sensitized and allergen-challenged mice. The data set is described as follows: Acute nadolol with aminophylline, methacholine-induced bronchoconstriction. The class given is in vivo. The note with it: aminophylline 100 mg/kg i.p. during methacholine; untreated and nadolol-treated mice. Here is the method: Mice were sensitized to the allergen ovalbumin as described in Example 1. […] At time point 1 (time=−10 min) baseline airway resistance of the mice was determined. At time point 2 (time=−5 min) methacholine was infused into mice to reach their EC70.

The mark [10] stands for this setting: asthmatic mice, chronic: 28 days (chow; salbutamol by osmotic minipump).
Where [11] appears, read: lung membranes of asthmatic mice, mean±SEM.
Setting [12] is: 28 Days drug treatment, lung membranes of asthmatic mice, mean±SEM.

On to `CCCC1O[C@@H]2C[C@H]3[C@@H]4CCC5=CC(=O)C=C[C@]5(C)[C@H]4[C@@H](O)C[C@]3(C)[C@]2(C(=O)CO)O1` (stereo partly shown) [budesonide], for which the “plasma clearance of the 2 enantiomers per kilogram of bodyweight, children versus adults” value in data set [1] (6 children with asthma versus 11 healthy adults) is “about 50%”.

For the compound `CC(C)(C)NCC(O)c1cc(O)cc(O)c1` (stereo not shown) [terbutaline], the “rate of absorption through the lung” value in [1] (healthy smokers versus healthy nonsmokers) was “more rapidly in healthy smokers than in healthy nonsmokers”.

Consider `CC(C)(C)NC[C@H](O)COc1nsnc1N1CCOCC1` [timolol], for which the “airway hyperresponsiveness (Raw) to methacholine” value in the data set with asthmatic mice [2] was “effective in reducing airway hyperresponsiveness in asthmatic mice”.

For `OCc1cc(C(O)CNCCCCCCOCCCCc2ccccc2)ccc1O` (stereo not shown) [salmeterol], the death rates result in [3] is recorded as “stopped due to increased death rates”.

Consider `COc1ccccc1OCCNCC(O)COc1cccc2[nH]c3ccccc3c12` (stereo not shown) [Carvedilol, carvedilol], for which the “sensitivity of the responsiveness to methacholine” value in the data set on asthmatic mice [4] (asthmatic mice, chronic administration) is recorded as “shifts the sensitivity of the responsiveness to methacholine to lower concentrations”. In addition, the “airway responsiveness to methacholine provocation (airway resistance, Raw)” value (from here on “airway responsiveness”) in the data set on asthmatic mice [4] (setting [10]) was “does reduce airway hyperresponsiveness; also recorded: reduced the responsiveness of asthmatic mice to methacholine provocation”. Moreover, in the data set on asthmatic mice [4] (chronic administration, high and low dose in chow (Example 6)), the “protection from airway hyperresponsiveness” value is “providing protection from airway hyperresponsiveness”. The “bronchoconstriction / airway hyperresponsiveness to methacholine” value with asthmatic mice [5] was “higher bronchoconstriction than these treatments but less than the non-drug treated sensitized and challenged (NTX S/C) mice”. On β2-adrenergic receptor [6] (setting [11]), the “Bmax (β-adrenergic receptor density)” value is given as 86.3 ± 19.42 femtomoles of sites per milligram of protein. Further, the “βmax (β-adrenergic receptor density)” value on β2-adrenergic receptor [6] (setting [12]) is 904.1 ± 43.46 femtomoles of sites per milligram of protein. The “Increased β2AR density” value on β2-adrenergic receptor [6] (28 days of administration) is given as “showed an increase in receptor density”; with β2-adrenergic receptor [7], “no”. For the same compound, the “increase of the level of β2-adrenergic receptors over the non-treated mice” value at β2-adrenergic receptor [6] (chronic administration, versus untreated methacholine-challenged asthmatic mice) is recorded as “over 10 fold”. Also, the “clinical benefit in congestive heart failure” value (“clinical benefit” below) in the data set on patients with CHF is “significant mortality reduction”.

As for `C=CCc1ccccc1OCC(O)CNC(C)C` (stereo not shown) [Alprenolol, alprenolol], the “effectiveness on contraction of excised tracheas in response to methacholine (rank)” value in the data set on tracheas from the mice is “most effective compound”. Further, the “airway responsiveness” value in the data set with asthmatic mice [4] (setting [10]) was “does not reduce airway hyperresponsiveness compared to untreated asthmatic mice; also recorded: provides no benefit upon chronic administration”. In addition, at β2-adrenergic receptor [6] (setting [11]), the “Bmax (β-adrenergic receptor density)” value is given as 299.5 ± 12.19 femtomoles of sites per milligram of protein. The “βmax (β-adrenergic receptor density)” value at β2-adrenergic receptor [6] (setting [12]) is reported as 179.2 ± 53.05 femtomoles of sites per milligram of protein. The “Increased β2AR density” value in the data set on β2-adrenergic receptor [7] is “no”.

As to `CC(C)NC[C@H](O)COc1cccc2ccccc12` [L-form, propranolol], the specific lung resistance result in [8] was “increased specific lung resistance”.

In the case of `CC(C)NC[C@@H](O)COc1cccc2ccccc12` [D-propranolol], in data set [8], the “antigen-induced bronchoconstriction and airway hyperresponsiveness” value is “beneficial in inhibiting antigen-induced bronchoconstriction and reducing airway hyperresponsiveness”. Moreover, the “potency in inhibiting the β-adrenergic receptor relative to the L-form” value in the data set with β-adrenergic receptor is 1/100.

As for `Cc1ccc(OCC(O)C(C)NC(C)C)c2c1CCC2` (stereo not shown) [ICI-118,551], the “effectiveness on contraction of excised tracheas in response to methacholine (rank)” value in the data set with tracheas from the mice was “then ICI-118,551”.

As for `COCCc1ccc(OCC(O)CNC(C)C)cc1` (stereo not shown) [metoprolol], in the data set on asthmatic mice [2], the “airway hyperresponsiveness (Raw) to methacholine” value was “effective in reducing airway hyperresponsiveness in asthmatic mice”. The “clinical benefit” value in the data set on patients with CHF is “significant mortality reduction”.

For the compound `CC(C)(C)NCC(O)c1ccc(O)c(CO)c1` (stereo not shown) [Salbutamol, salbutamol], the “airway responsiveness” value was “reduced the level of airway responsiveness to methacholine provocation and the level of airway resistance” in the data set on asthmatic mice [4] (asthmatic mice, acute: single intravenous bolus 15 minutes before methacholine); “no protection was observed” in the data set on asthmatic mice [4] (setting [10]). Further, the “Bmax (β-adrenergic receptor density)” value at β2-adrenergic receptor [6] (setting [11]) is listed as 256.5 ± 29.24 femtomoles of sites per milligram of protein. Moreover, the “βmax (β-adrenergic receptor density)” value at β2-adrenergic receptor [6] (setting [12]) is reported as 97.0 ± 23.02 femtomoles of sites per milligram of protein. Moreover, on β2-adrenergic receptor [6] (28 Days drug treatment, lung membranes of asthmatic mice, mean±SEM, read-out: KD (apparent, of radioligand ICYP)), the Kd worked out at 0.225 nM. Besides, the “Increased β2AR density” value in the data set with β2-adrenergic receptor [7] was “no”. Besides, the “bioavailability of inhaled drug” value in data set [1] (10 patients with cystic fibrosis versus healthy adults) is listed as “greater than that in healthy adults”.

Regarding `CC(C)(Cc1c[nH]c2ccccc12)NCC(O)COc1ccccc1C#N` (stereo not shown) [Bucindolol, bucindolol], the “clinical benefit” value in the data set with patients with CHF is reported as “failed to demonstrate any benefit over placebo”.

Regarding `Cn1c(=O)c2[nH]cnc2n(C)c1=O` [aminophylline], the “airway resistance after aminophylline administration” value in [9] is “significant and sustained drop in airway resistance; also recorded: can alleviate the acute effects on airway hyperresponsiveness of nadolol administration”.
